Measured values reported in patent US10710994B2, “Oxadiazole transient receptor potential channel inhibitors” (Genentech, Inc., priority 2018, dated 2020).
pIC50: −log10 of the molar value. Counter-ions that a name gives are not always drawn. Like-named read-outs stand apart in the source and are kept apart here.

Biological target: human TRPA1 channel (Homo sapiens (Human), UniProt O75762)
Experiment: hTRPA1 CHO Ca2+ FLIPR Tetra assay: block of cinnamaldehyde induced calcium influx
Type: cell-based
Details: CHO cells expressing TRPA1, Hill coefficient fixed to 1.5
How it was run: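 TRPA1-expressing CHO cells loaded with calcium indicator dye (1 h 37° C, then 15 min room temperature) in HBSS/20 mM HEPES pH 7.4/0.02% BSA. IC50 from fits with fixed Hill coefficient.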

[1] = read-out: hTRPA1 IC50 10 min, 10 minutes incubation with compound before cinnamaldehyde (about EC80)
[2] = read-out: hTRPA1 IC50 90 min, 90 minutes incubation with compound before cinnamaldehyde (about EC80)
[3] = hTRPA1 IC50 10 min, 10 minutes incubation with compound before cinnamaldehyde (about EC80)
[4] = hTRPA1 IC50 90 min, 90 minutes incubation with compound before cinnamaldehyde (about EC80)

human TRPA1 channel, sequence (O75762 whole entry): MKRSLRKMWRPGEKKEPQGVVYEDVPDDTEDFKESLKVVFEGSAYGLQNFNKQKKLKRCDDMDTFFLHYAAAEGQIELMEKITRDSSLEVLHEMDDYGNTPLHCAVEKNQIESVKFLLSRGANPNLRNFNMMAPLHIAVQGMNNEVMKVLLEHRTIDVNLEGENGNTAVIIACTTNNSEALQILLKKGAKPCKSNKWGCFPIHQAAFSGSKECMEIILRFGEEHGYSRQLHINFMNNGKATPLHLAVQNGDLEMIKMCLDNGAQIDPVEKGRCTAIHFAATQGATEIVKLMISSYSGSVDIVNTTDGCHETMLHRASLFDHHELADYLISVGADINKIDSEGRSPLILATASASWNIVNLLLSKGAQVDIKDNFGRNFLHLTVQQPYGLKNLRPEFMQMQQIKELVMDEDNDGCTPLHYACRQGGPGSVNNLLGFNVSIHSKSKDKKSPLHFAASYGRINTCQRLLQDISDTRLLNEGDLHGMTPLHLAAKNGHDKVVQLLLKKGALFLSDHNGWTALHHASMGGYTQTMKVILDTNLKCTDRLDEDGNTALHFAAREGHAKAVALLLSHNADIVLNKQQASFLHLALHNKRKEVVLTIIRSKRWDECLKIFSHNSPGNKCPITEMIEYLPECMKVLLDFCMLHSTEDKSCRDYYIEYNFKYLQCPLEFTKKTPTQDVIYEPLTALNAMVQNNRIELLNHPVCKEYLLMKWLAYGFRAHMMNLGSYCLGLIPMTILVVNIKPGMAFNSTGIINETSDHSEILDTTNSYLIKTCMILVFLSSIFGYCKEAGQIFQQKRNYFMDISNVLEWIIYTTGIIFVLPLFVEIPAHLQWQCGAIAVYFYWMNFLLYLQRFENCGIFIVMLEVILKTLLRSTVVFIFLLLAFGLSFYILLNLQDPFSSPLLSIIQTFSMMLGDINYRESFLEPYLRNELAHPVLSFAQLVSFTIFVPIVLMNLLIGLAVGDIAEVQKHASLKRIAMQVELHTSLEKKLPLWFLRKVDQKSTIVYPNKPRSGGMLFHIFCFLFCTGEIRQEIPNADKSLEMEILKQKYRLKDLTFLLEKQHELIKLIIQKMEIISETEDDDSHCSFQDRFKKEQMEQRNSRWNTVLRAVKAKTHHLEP

pIC50 [1]	pIC50 [2]	pIC50 [3]	pIC50 [4]	Compound
5.59	7.01	–	–	O=c1c2c(cnn1Cc1nc([C@@H]3CO[C@@H](c4ccc(Cl)cc4)C3)no1)CNCC2 [Example 146, 2-((3-((3R,5R)-5-(4-chlorophenyl)tetrahydro-furan-3-yl)-1,2,4-oxadiazol-5-yl)methyl)-5,6,7,8-tetrahydropyrido[3,4-d] pyridazin-1(2H)-one hydrochloride]
6.95	7.31	–	–	Cn1nncc1C(=O)NCc1nc([C@@H]2CO[C@@H](c3ccc(Cl)cc3)C2)no1 [Example 121, N-((3-((3R,5R)-5-(4-chlorophenyl)tetrahydro-furan-3-yl)-1,2,4-oxadiazol-5-yl)methyl)-1-methyl-1H-1,2,3-triazole-5-carboxamide]
8.03	7.34	–	–	Cc1c(N)nn2ncn(Cc3nc([C@@H]4CO[C@@H](c5ccc(F)cc5)C4)no3)c(=O)c12 [Example 145, 6-amino-3-((3-((3R,5R)-5-(4-fluorophenyl)tetrahydro-furan-3-yl)-1,2,4-oxadiazol-5-yl)methyl)-5-methylpyrazolo[5,1-f][1,2,4]triazin-4(3H)-one]
7.99	8.12	–	–	Nc1nc2cccnc2n1Cc1nc([C@@H]2CO[C@@H](c3ccc(Cl)cc3)C2)no1 [Example 155, 3-[[3-[(3R,5R)-5-(4-chlorophenyl)tetrahydro-furan-3-yl]-1,2,4-oxadiazol-5-yl]methyl]imidazo[4,5-b]pyridin-2-amine]
7.14	7.05	–	–	O=c1c2ccnnc2ncn1Cc1nc([C@@H]2CO[C@@H](c3ccc(F)cc3)C2)no1 [Example 103, 6-[[3-[(3R,5R)-5-(4-fluorophenyl)tetrahydro-furan-3-yl]-1,2,4-oxadiazol-5-yl]methyl]pyrimido[4,5-c]pyridazin-5-one]
–	–	8.24	8.85	Nc1nc2ncsc2c(=O)n1Cc1nc([C@@H]2CO[C@@H](c3ccc(Cl)cc3)C2)no1 (racemic) [Example 158, 5-amino-6-[[3-[rac-(3R,5R)-5-(4-chlorophenyl)tetrahydro-furan-3-yl]-1,2,4-oxadiazol-5-yl]methyl]thiazolo[4,5-d]pyrimidin-7-one]
7.19	7.89	–	–	Cc1nc2ncn(C)c2c(=O)n1Cc1nc([C@@H]2CO[C@@H](c3ccc(F)cc3)C2)no1 [Example 137, 1-((3-((3R,5R)-5-(4-fluorophenyl)tetrahydro-furan-3-yl)-1,2,4-oxadiazol-5-yl)methyl)-2,7-dimethyl-1,7-dihydro-6H-purin-6-one]
–	–	6.91	7.02	Cc1nc(N2CCOCC2)n2ncn(Cc3nc([C@@H]4CO[C@@H](c5ccc(Cl)cc5)C4)no3)c(=O)c12 (racemic) [Example 101, 5-methyl-7-morpholino-3-[[3-[rac-(3R,5R)-5-(4-chlorophenyl)tetrahydro-furan-3-yl]-1,2,4-oxadiazol-5-yl]methyl]imidazo[5,1-f][1,2,4]triazin-4-one]

More lines, now with the values behind:

Compound	pIC50 [1]	pIC50 [2]	pIC50 [3]	pIC50 [4]
O=c1c2cccnc2ncn1Cc1nc([C@@H]2CO[C@@H](c3ccc(Cl)cc3)C2)no1 [Example 25, 3-((3-((3R,5R)-5-(4-chlorophenyl)tetrahydro-furan-3-yl)-1,2,4-oxadiazol-5-yl)methyl)pyrido[2,3-d]pyrimidin-4(3H)-one]	8.18	8.24	–	–
Cc1cnn2nc(N)n(Cc3nc([C@@H]4CO[C@@H](c5ccc(F)cc5)C4)no3)c(=O)c12 [Example 3, 2-amino-3-((3-((3R,5R)-5-(4-fluorophenyl)tetrahydrofuran-3-yl)-1,2,4-oxadiazol-5-yl)methyl)-5-methylpyrazolo[5,1-f][1,2,4]triazin-4(3H)-one]	8.30	8.89	–	–
Cn1cnc2ncn(Cc3nc([C@@H]4CO[C@@H](c5ccc(Br)cc5)C4)no3)c(=O)c21 [Example 29, 1-((3-((3R,5R)-5-(4-bromophenyl)tetra-hydrofuran-3-yl)-1,2,4-oxadiazol-5-yl)methyl)-7-methyl-1,7-dihydro-6H-purin-6-one]	8.11	8.74	–	–
Cn1cnc2ncn(Cc3nc([C@@H]4CO[C@@H](c5cc(F)c(F)c(F)c5)C4)no3)c(=O)c21 [Example 40, 7-methyl-1-((3-((3R,5R)-5-(3,4,5-trifluorophenyl)tetrahydrofuran-3-yl)-1,2,4-oxadiazol-5-yl)methyl)-1,7-dihydro-6H-purin-6-one]	7.56	7.96	–	–
O=c1c2cccc(=O)n2cnn1Cc1nc([C@@H]2CO[C@@H](c3ccc(Cl)cc3)C2)no1 [Example 82, 2-((3-((3R,5R)-5-(4-chlorophenyl)tetrahydro-furan-3-yl)-1,2,4-oxadiazol-5-yl)methyl)-2H-pyrido [1,2-d][1,2,4]triazine-1,6-dione]	–	8.62	–	–
Cc1cnn2ncn(Cc3nc([C@@H]4CO[C@@H](c5ccc(Cl)cn5)C4)no3)c(=O)c12 (racemic) [Example 72, Racemic 3-((3-((3R,5R)-5-(5-chloropyridin-2-yl)tetrahydrofuran-3-yl)-1,2,4-oxadiazol-5-yl)methyl)-5-methylpyrazolo[5,1-f] [1,2,4]triazin-4(3H)-one]	–	–	6.66	6.82
Cn1cnc2ncn(Cc3nc([C@@H]4CO[C@@H](c5ccc(Cl)c(Cl)c5)C4)no3)c(=O)c21 [Example 31, 1-((3-((3R,5R)-5-(3,4-dichlorophenyl)tetra-hydrofuran-3-yl)-1,2,4-oxadiazol-5-yl)methyl)-7-methyl-1,7-dihydro-6H-purin-6-one]	7.71	8.11	–	–
Cc1nc(N2CC(CN)C2)n2ncn(Cc3nc([C@@H]4CO[C@@H](c5ccc(Cl)cc5)C4)no3)c(=O)c12 [Example 80, 7-(3-(aminomethyl)azetidin-1-yl)-3-((3-((3R,5R)-5-(4-chlorophenyl)tetrahydro-furan-3-yl)-1,2,4-oxadiazol-5-yl)methyl)-5-methylimidazo[5,1-f] [1,2,4]triazin-4(3H)-one]	–	6.74	–	–
Cn1c(N)nc2ncn(Cc3nc([C@@H]4CO[C@@H](c5ccc(Cl)cc5)C4)no3)c(=O)c21 [Example 26, 8-amino-1-((3-((3R,5R)-5-(4-chlorophenyl)tetrahydro-furan-3-yl)-1,2,4-oxadiazol-5-yl)methyl)-7-methyl-1,7-dihydro-6H-purin-6-one]	7.23	8.01	–	–
O=c1c2c(ncn1Cc1nc([C@@H]3CO[C@@H](c4ccc(Cl)cc4)C3)no1)CNCC2 [Example 73, 3-((3-((3R,5R)-5-(4-chlorophenyl)tetrahydro-furan-3-yl)-1,2,4-oxadiazol-5-yl)methyl)-5,6,7,8-tetrahydropyrido [3,4-d]pyrimidin-4(3H)-one]	–	7.66	–	–
Cc1ncn2nc(N)n(Cc3nc([C@@H]4CO[C@@H](c5ccc(F)cc5)C4)no3)c(=O)c12 [Example 85, 2-amino-3-((3-((3R,5R)-5-(4-fluorophenyl)tetra-hydrofuran-3-yl)-1,2,4-oxadiazol-5-yl)methyl)-5-methylimidazo[5,1-f] [1,2,4]triazin-4(3H)-one]	7.81	8.22	–	–
[2H]c1nc2nc(C)n(Cc3nc([C@@H]4CO[C@@H](c5ccc(Cl)cc5)C4)no3)c(=O)c2n1C [Example 110, 1-((3-((3R,5R)-5-(4-chlorophenyl)tetrahydro-furan-3-yl)-1,2,4-oxadiazol-5-yl)methyl)-2,7-dimethyl-1,7-dihydro-6H-purin-6-one-8-d]	–	–	8.03	8.41
Cc1cncc2ncn(Cc3nc([C@@H]4CO[C@@H](c5ccc(Cl)cc5)C4)no3)c(=O)c12 [Example 44, 3-((3-((3R,5R)-5-(4-chlorophenyl)tetrahydro-furan-3-yl)-1,2,4-oxadiazol-5-yl)methyl)-5-methylpyrido[3,4-d]pyrimidin-4(3H)-one]	8.49	8.89	–	–
O=c1c2cccc(=O)n2ccn1Cc1nc([C@@H]2CO[C@@H](c3ccc(F)cc3)C2)no1 (racemic) [Example 94, 2-[[3-[rac-(3R,5R)-5-(4-fluorophenyl)tetrahydro-furan-3-yl]-1,2,4-oxadiazol-5-yl]methyl]pyrido[1,2-a] pyrazine-1,6-dione]	–	–	–	7.92
Cn1cnc2ncn(Cc3nc([C@@H]4CO[C@@](C)(c5ccc(Cl)cc5)C4)no3)c(=O)c21 [Example 42, 1-((3-((3R,5R)-5-(4-chlorophenyl)-5-methyltetrahydrofuran-3-yl)-1,2,4-oxadiazol-5-yl)methyl)-7-methyl-1,7-dihydro-6H-purin-6-one]	5.43	5.66	–	–
Cc1nc(NC2CCN(C)CC2)n2ncn(Cc3nc([C@@H]4CO[C@@H](c5ccc(Cl)cc5)C4)no3)c(=O)c12 [Example 78, 3-((3-((3R,5R)-5-(4-chlorophenyl)tetrahydro-furan-3-yl)-1,2,4-oxadiazol-5-yl)methyl)-5-methyl-7-((1-methylpiperidin-4-yl)amino)imidazo[5,1-f] [1,2,4]triazin-4(3H)-one]	–	6.82	–	–
Cn1cnc2ccn(Cc3nc([C@@H]4CO[C@@H](c5ccc(Cl)cc5)C4)no3)c(=O)c21 [Example 39, 5-((3-((3R,5R)-5-(4-chlorophenyl)tetrahydro-furan-3-yl)-1,2,4-oxadiazol-5-yl)methyl)-3-methyl-3,5-dihydro-4H-imidazo[4,5-c]pyridin-4-one]	8.51	9.38	–	–
Cc1ccc(=O)n2ccn(Cc3nc([C@@H]4CO[C@@H](c5ccc(Cl)cc5)C4)no3)c(=O)c12 [Example 49, 2-((3-((3R,5R)-5-(4-chlorophenyl)tetrahydro-furan-3-yl)-1,2,4-oxadiazol-5-yl)methyl)-9-methyl-2H-pyrido[1,2-a]pyrazine-1,6-dione]	–	8.37	–	–
